{
  "source": "PubChem BioAssay (NCI)",
  "assay_in_all_cases": "growth of human tumour cells (NCI), 48 h",
  "key": {"[1]": {"test_system": "LXFL 529 NSCLC"}, "[2]": {"test_system": "SNB-78 CNS"}, "[3]": {"test_system": "DMS 273 small cell lung"}, "[4]": {"test_system": "XF 498 CNS"}, "[5]": {"test_system": "KM20L2 colon"}, "[6]": {"test_system": "DLD-1 colon"}, "[7]": {"test_system": "M19-MEL melanoma"}, "[8]": {"test_system": "HOP-18 NSCLC"}},
  "note": "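Cells were grown in 96-well plates and exposed to each compound for 48 hours at five concentrations; endpoints were interpolated linearly between bracketing concentrations, or set to the highest concentration if not reached. Definition used: TGI = concentration required for complete inhibition of growth.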",
  "data": [
    {"smiles": "CC(C)C(/C=C/c1ccccc1)=N\\NC(=O)N/N=C(/C=C/c1ccccc1)C(C)C", "values": [
      {"measurement": "TGI", "setting": "[1]", "value": 75.3, "unit": "µM"},
      {"measurement": "TGI", "setting": "[2]", "value": "> 100", "unit": "µM"},
      {"measurement": "TGI", "setting": "[3]", "value": 55.1, "unit": "µM"},
      {"measurement": "TGI", "setting": "[4]", "value": 77.4, "unit": "µM"},
      {"measurement": "TGI", "setting": "[5]", "value": 93.6, "unit": "µM"},
      {"measurement": "TGI", "setting": "[6]", "value": "> 100", "unit": "µM"},
      {"measurement": "TGI", "setting": "[7]", "value": 76.9, "unit": "µM"}
    ]},
    {"smiles": "CC(=O)c1ccc(NC(=O)/C(=N\\NC(N)=O)C(C#N)CC(C)(C)C=O)cc1", "note": "(stereo not given)", "values": [
      {"measurement": "TGI", "setting": "[1]", "value": "> 100", "unit": "µM"},
      {"measurement": "TGI", "setting": "[2]", "value": "> 100", "unit": "µM"},
      {"measurement": "TGI", "setting": "[3]", "value": "> 100", "unit": "µM"},
      {"measurement": "TGI", "setting": "[4]", "value": "> 100", "unit": "µM"},
      {"measurement": "TGI", "setting": "[5]", "value": "> 100", "unit": "µM"},
      {"measurement": "TGI", "setting": "[6]", "value": "> 100", "unit": "µM"},
      {"measurement": "TGI", "setting": "[7]", "value": "> 100", "unit": "µM"}
    ]},
    {"smiles": "C[C@]12CCC(=O)C=C1CC[C@@H]1[C@@H]2C(=O)C[C@@]2(C)[C@H]1CC[C@]2(O)C(=O)CO", "values": [
      {"measurement": "TGI", "setting": "[1]", "value": "> 100", "unit": "µM"},
      {"measurement": "TGI", "setting": "[3]", "value": "> 100", "unit": "µM"},
      {"measurement": "TGI", "setting": "[4]", "value": "> 100", "unit": "µM"},
      {"measurement": "TGI", "setting": "[5]", "value": "> 100", "unit": "µM"},
      {"measurement": "TGI", "setting": "[6]", "value": "> 100", "unit": "µM"},
      {"measurement": "TGI", "setting": "[8]", "value": "> 100", "unit": "µM"},
      {"measurement": "TGI", "setting": "[7]", "value": "> 100", "unit": "µM"}
    ]},
    {"smiles": "CN(C)c1nc(N(C)C)nc(N(C)CN(C)c2nc(N(C)C)nc(N(C)C)n2)n1", "values": [
      {"measurement": "TGI", "setting": "[1]", "value": "> 100", "unit": "µM"},
      {"measurement": "TGI", "setting": "[2]", "value": "> 100", "unit": "µM"},
      {"measurement": "TGI", "setting": "[3]", "value": "> 100", "unit": "µM"},
      {"measurement": "TGI", "setting": "[5]", "value": "> 100", "unit": "µM"},
      {"measurement": "TGI", "setting": "[6]", "value": "> 100", "unit": "µM"},
      {"measurement": "TGI", "setting": "[8]", "value": "> 100", "unit": "µM"},
      {"measurement": "TGI", "setting": "[7]", "value": "> 100", "unit": "µM"}
    ]},
    {"smiles": "CC(=O)Nc1ccc(-c2nnc(SCC(=O)Nc3ccccc3[N+](=O)[O-])o2)cc1", "values": [
      {"measurement": "TGI", "setting": "[1]", "value": "> 100", "unit": "µM"},
      {"measurement": "TGI", "setting": "[2]", "value": "> 100", "unit": "µM"},
      {"measurement": "TGI", "setting": "[3]", "value": "> 100", "unit": "µM"},
      {"measurement": "TGI", "setting": "[5]", "value": "> 100", "unit": "µM"},
      {"measurement": "TGI", "setting": "[6]", "value": "> 100", "unit": "µM"},
      {"measurement": "TGI", "setting": "[8]", "value": "> 100", "unit": "µM"},
      {"measurement": "TGI", "setting": "[7]", "value": "> 100", "unit": "µM"}
    ]},
    {"smiles": "CSC(=S)N(C)NC(=O)c1cccc(C(=O)NN(C)C(=S)SC)n1", "values": [
      {"measurement": "TGI", "setting": "[1]", "value": "> 100", "unit": "µM"},
      {"measurement": "TGI", "setting": "[2]", "value": "> 100", "unit": "µM"},
      {"measurement": "TGI", "setting": "[3]", "value": 54.1, "unit": "µM"},
      {"measurement": "TGI", "setting": "[5]", "value": "> 100", "unit": "µM"},
      {"measurement": "TGI", "setting": "[6]", "value": "> 100", "unit": "µM"},
      {"measurement": "TGI", "setting": "[8]", "value": "> 100", "unit": "µM"},
      {"measurement": "TGI", "setting": "[7]", "value": "> 100", "unit": "µM"}
    ]},
    {"smiles": "COCC(=O)[C@]1(O)Cc2c(O)c3c(c(O)c2[C@@H](OC2CC(N)C(O)C(C)O2)C1)C(=O)c1c(OC)cccc1C3=O", "note": "(stereo not given in full)", "values": [
      {"measurement": "TGI", "setting": "[1]", "value": 2.11, "unit": "µM"},
      {"measurement": "TGI", "setting": "[2]", "value": 30.6, "unit": "µM"},
      {"measurement": "TGI", "setting": "[3]", "value": 0.603, "unit": "µM"},
      {"measurement": "TGI", "setting": "[5]", "value": 0.938, "unit": "µM"},
      {"measurement": "TGI", "setting": "[6]", "value": 5.15, "unit": "µM"},
      {"measurement": "TGI", "setting": "[7]", "value": 0.339, "unit": "µM"}
    ]},
    {"smiles": "O=C(c1ccc(Cl)cc1)N(C(=S)N1CCN(c2ccccn2)CC1)c1ccccc1", "values": [
      {"measurement": "TGI", "setting": "[1]", "value": "> 100", "unit": "µM"},
      {"measurement": "TGI", "setting": "[2]", "value": "> 100", "unit": "µM"},
      {"measurement": "TGI", "setting": "[3]", "value": "> 100", "unit": "µM"},
      {"measurement": "TGI", "setting": "[5]", "value": "> 100", "unit": "µM"},
      {"measurement": "TGI", "setting": "[6]", "value": "> 100", "unit": "µM"},
      {"measurement": "TGI", "setting": "[8]", "value": "> 100", "unit": "µM"},
      {"measurement": "TGI", "setting": "[7]", "value": "> 100", "unit": "µM"}
    ]}
  ]
}
